Series [1] deals with proteinases P1, P2, P3, P4. Description: Zymography with proteinase inhibitors, components P1-P4. It is filed as biochemical, Acanthamoeba. To be noted: inhibitor 1 mM. Here is the method:
(§1) To characterize the mechanism by which the mannose-mediated host-parasite interactions influence the amoeba-induced cytolysis and/or cytopathic effect, conditioned media obtained by incubating amoebae with primary cultures of corneal epithelium in the presence and absence of α-Man for 6 to 8 hours were analyzed by zymography. Media conditioned by only Acanthamoeba or only epithelial cells were also analyzed. Zymography was performed using separating gels containing 10% acrylamide and 2 mg/ml gelatin, essentially as described by D. E. Kleiner et al. (Anal Biochem. 218:325-329, 1994). Samples were diluted in the electrophoresis sample buffer (U. K. Laemmli, Nature 227:680-685, 1970) without mercaptoethanol and were applied to the gels. After electrophoresis, proteinases separated on the gels were renatured by incubating the gels in 2.5% Triton X-100 in 50 mM Tris-HCl, pH 7.5 to remove SDS. After incubating the gels for 18 hours in a developing buffer (50 mM Tris-HCl, pH 7.5 containing 10 mM CaCl2), the gels were stained with Coomassie brilliant blue. Areas of digestion were visualized as non-staining regions. In some experiments, samples were pre-treated with phenylmethylsulfonyl fluoride (PMSF, 1 mM), an inhibitor of […] for one hour prior to electrophoresis, or 1,10-phenanthroline (1 mM), an inhibitor of metalloproteinases, was added to the developing buffer.

The subject of the next series is proteinases E1, E2. In words: Zymography with proteinase inhibitors, media conditioned by epithelial cells alone. It is filed as biochemical, rabbit. To be noted: inhibitor 1 mM. Here is the method: as §1
The subject of series [2] is Acanthamoeba. In words: 51Cr release assay of amoeba-induced cytolysis of corneal epithelium. It is filed as cell-based. Here is the method: Chromium release experiments were performed to confirm the absence or occurrence of cytolysis. Visually, cell plaques or bare spots in a culture can indicate either cell loss by cytolysis, or separation of the cell from the culture surface, wherein detached cells, although initially viable, subsequently die. Cell lysis was quantified by measuring ^51 Cr release from prelabeled cells. After incubating confluent monolayer cultures of corneal epithelium in 24-well plates in cell culture medium containing Na^51 CrO4 (460 mCi/mg, 12 μCi/ml) for 18-20 hours, the cells were thoroughly rinsed and incubated with Acanthamoeba (1×10^6 parasites/ml SFB media). The four groups were (i) Acanthamoeba in media alone, (ii) Acanthamoeba in media containing α-Man, (iii) Acanthamoeba in media containing GlcNAc, and (iv) Acanthamoeba condition media. When approximately 50-70% cell loss occurred based on phase contrast microscopy, aliquots of cell-free conditioned medium from each well were analyzed. Supernatants from the four wells in each group were pooled before analysis. Percent specific release was calculated using E/T×100, where E is CPM released in test well minus CPM released in control (parasite-free) well and T is the total CPM (CPM cells+CPM supernatant in control wells). "CPM cells" was determined by incubating control wells with 0.5% Triton X-100. Conditioned media from each well was also analyzed for lactate dehydrogenase (LDH) release using an LDH assay kit (Sigma).

The subject of series [3] is Acanthamoeba. In words: Adhesion of amoebae to corneal epithelial cell monolayer. It is filed as cell-based. To be noted: saccharide present in media; listed as GlcNAc.
For series [4], the system named is Acanthamoeba-conditioned medium (ACM). Description: CPE assay with Acanthamoeba-conditioned medium (ACM). It is filed as cell-based. Here is the method: To determine whether the mechanism modulating the CPE produced by intact amoeba and amoeba-conditioned medium (ACM) are distinct, CPE and assays were also performed using ACM in the presence and the absence of saccharides. To produce ACM, exponentially growing parasites (>95% trophozoites) in PYG media (Proteose Peptone-yeast extract-glucose , J. T. Bornes et al., J. Parasitol. 56:904-906, 1970) were rinsed twice with SFB medium and incubated in serum-free SFB medium at concentrations between 2×10^5 to 1×10^6 cells/ml in a CO2 incubator for 24 hours. After removing the parasites by centrifugation, each supernatant was analyzed for its ability to induce CPE. Saccharides (α-Man and GIcNAc, 50 mM) were added either to the ACM after it was produced or to serum-free medium used to produce an ACM. The ACM produced in the presence of the saccharides was also analyzed after removal of the saccharides by centrifugation through Centricon 3 microconcentrators (Amicon Inc., Beverly, Mass.).
To determine the role of the parasitic secretory factors in the cytopathogenic mechanism, chromium release and CPE assays were performed using ACM. In this study, parasites were incubated in the SFB media for 24 hours, centrifuged to remove parasites and the conditioned medium was tested for its ability to produce cytolysis and CPE. The ACM produced remarkable CPE. […] Approximately 6 to 8 hours following the incubation of the monolayer with the ACM, the cell sheet at the edges of the monolayer began to lift and roll inwards and eventually the entire monolayer lifted en bloc from the dish. These observations were similar to those seen when the monolayers were incubated with trophozoites in the presence of α-Man. Unlike the CPE induced by intact amoeba, the CPE induced by the ACM was not inhibited by either α-Man or GlcNAc when the sugars were added to the ACM after it was produced. In the next set of experiments, ACM was produced in the presence of α-Man or GIcNAc and was tested for CPE-inducing activity. […] In addition, the filtrate and retentate obtained after filtering the ACM in Centricon 3 microconcentrators were tested for CPE-inducing activity. When the ACM was produced in the absence of either sugar, substantially all of the CPE-inducing activity was found in the retentate obtained after Centricon filtration.

Series [5] has as its system Acanthamoeba. In words: Acanthamoeba-induced CPE assay, primary cultures of corneal epithelium. It is filed as cell-based. To be noted: primary cultures as target cells. Here is the method: In vitro cytopathic assays were performed using cell cultures of corneal epithelium as target cells. Primary cell cultures of rabbit corneal epithelium were prepared according to published protocols (M. M. Jumblatt, Invest. Opthalmol. Visual Sci. 24:1139-43, 1983) using rabbit eyes from Pel-Freez Biologicals (N. Panjwani et al., Invest. Opthalmol. Visual Sci. 31:689-695, 1990) (Rogers, AK). Generally, seventy-five eyes were processed at a time. Primary cultures have limited life span and can only be passaged 2 to 3 times without significant alteration in cell morphology.
(§2) To characterize the role of carbohydrate-mediated host-parasite interactions in the Acanthamoeba-induced cytotoxicity of host cells, in vitro cytopathic assays were performed using both primary and immortalized cultures of corneal epithelium as host cells. Immortalized cells were assayed as confluent cultures in 24-well plates, and primary cells were assayed as confluent cells in 35-mm dishes or 6-well plates.
The parasites (>95% trophozoites) were rinsed three times in a serum-free Eagle's minimum essential medium supplemented with 0.4% bovine serum albumin (SFB) and aliquots of the parasite suspension (0.2×10^5 to 1×10^6 parasites/ml SFB medium, 300 μl/well for 24-well plates and 500 μl/well for 6-well plates or 35-mm dishes) were added to wells of confluent epithelial cultures which had been rinsed and preincubated in SFB medium for 2 hours. The plates were incubated at 37° C. in a CO2 incubator and periodically examined under a phase-contrast microscope for the presence of cell-free plaques in the monolayer for up to 28-30 hours. Control wells contained host cells without the parasites. At the end of the incubation period, the cultures were stained with Giemsa (Diff-Quik, Dade Diagnostic Inc., Aguada, PR). Approximate cell density in each well was estimated by scanning the stained plates in a calibrated, computer-assisted Bio-Image Scanner (Millipore, Ann Arbor, Mich.). Cytopathic effect (CPE) was expressed as percentage of the optical density by the following formula: [formula]
Primary cultures were less susceptible to amoeba-induced CPE, requiring 1×10^6 parasites/ml to completely destroy the monolayer within 24 hours. This parasite concentration was five times higher than that required to produce the same effect when immortalized cultures were used as target host cells.

Series [6] concerns Acanthamoeba. In words: Acanthamoeba-induced cytopathic effect (CPE) assay, immortalized corneal epithelial cultures. The series is classed as cell-based. The note with it: for Inhibition of amoeba-induced CPE: no concentration stated. The protocol: Corneal epithelial cells with extended life span were also produced.
as §2
The plates were incubated at 37° C. in a CO2 incubator and periodically examined under a phase-contrast microscope for the presence of cell-free plaques in the monolayer for up to 28-30 hours. Control wells contained host cells without the parasites. At the end of the incubation period, the cultures were stained with Giemsa (Diff-Quik, Dade Diagnostic Inc., Aguada, PR). Approximate cell density in each well was estimated by scanning the stained plates in a calibrated, computer-assisted Bio-Image Scanner (Millipore, Ann Arbor, Mich.). Cytopathic effect (CPE) was expressed as percentage of the optical density by the following formula: [formula]
The CPE assays were performed in the SFB media containing one or more saccharides to be tested.
After staining with Giemsa, percent cell loss in each well was calculated based on the optical density in each well.
Background: Damage to the host cells serves as the signal in cytopathic effect assays.

Series [7] deals with mannose binding protein (MBP) of Acanthamoeba (Acanthamoeba castellanii, UniProt Q6J288). Description: Solid-phase assay of 35S-labeled Acanthamoeba binding to Man-BSA coated wells. Further details: species or system Acanthamoeba strain MEEI 0184 (A. castellani). The note with it: for Inhibition of amoebic binding to Man-BSA / affinity of amoebic lectin: no concentration stated; for Inhibition of Acanthamoeba binding to Man-BSA: at 100 mM. The text has this: The Acanthamoeba strain MEEI 0184 (A. castellani based on morphological characteristics) was derived from an infected human cornea and used throughout this study. ATCC strain 30868 should have similar properties. The parasites were axenically cultured in PYG medium. A solid-phase assay characterized the sugar binding properties of the mannose binding protein (MBP) of Acanthamoeba (Z. Yang et al., Infect. Immun. 65:439-445, 1997). Briefly, wells of microtiter plates were coated with bovine serum albumin-α-D-mannopyranosyl phenylisothiocyanate (Man-BSA, 15-25 moles of α-D-mannopyranoside/mole albumin, 0.03 μg/ml, 50μl/well in 0.1 M sodium carbonate buffer, pH 9.6, 4° C. overnight). Nonspecific binding was blocked with 1% BSA in phosphate buffered saline (PBS, 1 hour, room temperature). After adding a 50-μl aliquot of ^35 S-labeled Acanthamoeba (5×10^6 cells/ml in PBS; 1 to 2 cpm/parasite, >95% trophozoites) to each well, the plates were incubated for 2 hours at room temperature. After rinsing the cells with PBS to remove unbound Acanthamoeba, 0.1 ml of 2% sodium dodecyl sulfate (SDS) was added to each well, and the radioactivity in aliquots of solubilized material was determined in a scintillation counter.

Entries after “also recorded” stand apart in the source; their conditions may differ.

mannose binding protein (MBP) of Acanthamoeba, sequence (Q6J288 entry or part of it): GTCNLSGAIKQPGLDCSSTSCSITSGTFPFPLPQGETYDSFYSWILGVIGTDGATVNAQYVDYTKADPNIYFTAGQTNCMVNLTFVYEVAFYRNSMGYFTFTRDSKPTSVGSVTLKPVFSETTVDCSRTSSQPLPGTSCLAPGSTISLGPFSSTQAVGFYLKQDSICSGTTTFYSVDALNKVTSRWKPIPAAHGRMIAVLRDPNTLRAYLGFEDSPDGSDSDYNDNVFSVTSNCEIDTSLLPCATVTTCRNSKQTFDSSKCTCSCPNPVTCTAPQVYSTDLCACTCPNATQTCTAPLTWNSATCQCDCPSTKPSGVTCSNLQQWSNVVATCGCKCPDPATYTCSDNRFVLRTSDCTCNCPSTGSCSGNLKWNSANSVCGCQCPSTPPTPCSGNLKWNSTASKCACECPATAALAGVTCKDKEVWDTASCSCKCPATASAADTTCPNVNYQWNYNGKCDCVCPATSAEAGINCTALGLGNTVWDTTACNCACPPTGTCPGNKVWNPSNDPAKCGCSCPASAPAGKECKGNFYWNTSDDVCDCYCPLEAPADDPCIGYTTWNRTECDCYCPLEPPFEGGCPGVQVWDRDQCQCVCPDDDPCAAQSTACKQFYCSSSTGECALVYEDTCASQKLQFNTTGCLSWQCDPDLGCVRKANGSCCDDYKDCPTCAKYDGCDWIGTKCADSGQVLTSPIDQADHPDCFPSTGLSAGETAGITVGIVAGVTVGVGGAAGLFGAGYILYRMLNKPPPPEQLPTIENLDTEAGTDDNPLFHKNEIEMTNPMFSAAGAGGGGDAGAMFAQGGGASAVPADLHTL

For the compound `O=S(=O)(F)Cc1ccccc1` [PMSF, phenylmethylsulfonyl fluoride], in [1], the “Susceptibility of component P1 (230 kD) to inhibitor” value was “susceptible”, the “Susceptibility of component P2 (97 kD) to inhibitor” value is on record as “susceptible”, the “Susceptibility of component P3 (80 kD) to inhibitor” value is reported as “resistant” and the “Susceptibility of component P4 (55 kD) to inhibitor” value was “susceptible”. For the same compound, in the series on proteinases E1, E2, the “Susceptibility of component E1 (93 kD) to inhibitor” value was “resistant” and the “Susceptibility of component E2 (63 kD) to inhibitor” value is listed as “resistant”.
A word on the inhibition: it is the change of the read-out against control, counted positive when it falls. With `CC(=O)N[C@H]1C(O)O[C@H](CO)[C@@H](O)[C@@H]1O` (stereo partly drawn) [N-acetyl-D-glucosamine], the “Percentage specific 51Cr release” value in the series with Acanthamoeba [2] (Acanthamoeba 1×10^6 parasites/ml in media containing the saccharide, media alone about 100) was around 80%. Moreover, the “Inhibition of amoeba-induced cytolysis” value with Acanthamoeba [2] (fifty millimolar, 51Cr release) is given as 10-20%. In addition, the “Adhesion of amoebae to the cell monolayer in presence of saccharide” value in the series with Acanthamoeba [3] is recorded as “poor inhibitor; also recorded: adhered tightly”. Also, the “CPE-inducing activity of ACM produced with saccharide, after removal of saccharide by Centricon filtration” value in series [4] (saccharide 50 mM) is recorded as “did not have CPE-inducing activity”. In addition, in series [4] (saccharide 50 mM in medium used to produce ACM), the “CPE-inducing activity of ACM produced in SFB containing the saccharide” value is recorded as “did not induce CPE”. Further, the “Inhibition of ACM-induced CPE” value in [4] (sugar (50 mM) added to the ACM after it was produced) is “not inhibited”. The “Inhibition of amoeba-induced CPE” value in the series with Acanthamoeba [5] was “inhibited”; in the series on Acanthamoeba [6] (listed as GlcNAc), “inhibits CPE; also recorded: potent inhibitor; also recorded: nearly identical”. Further, the inhibition at 310 µM in the series on Acanthamoeba [6] (Acanthamoeba, in Oryctolagus cuniculus, at 0.31 mM, read-out: Inhibition of cytopathic effect (% inhib. at indicated conc.)) turned out to be 60%. Also, in the series on Acanthamoeba [6] (primary and immortalized cultures, entire assay period of 28 hours), the “Attachment of cell layer to culture dish” value is “remained firmly adhered”. Besides, the “Amoeba-induced cytolysis of corneal epithelial cells (microscopy, words)” value with Acanthamoeba [6] (saccharide present in media) was “little evidence of cytolysis”. In series [7] (listed as GlcNAc), the “Inhibition of amoebic binding to Man-BSA / affinity of amoebic lectin” value is listed as “weak inhibitor”. For the same compound, the inhibition at 50000 µM in series [7] (read-out: Inhibition of binding, % at indicated conc.) was 50%.
Regarding `N[C@H]1C(O)O[C@H](CO)[C@@H](O)[C@@H]1O` (stereo partly drawn) [D-glucosamine], in the series on corneal epithelium, the “Toxicity to the epithelium” value was “Toxic”. For the same compound, the “Inhibition of Acanthamoeba binding to Man-BSA” value in [7] is given as “did not inhibit”.
Regarding `c1cnc2c(c1)ccc1cccnc12` [1,10-phenanthroline], in series [1], the “Susceptibility of component P1 (230 kD) to inhibitor” value is “resistant”, the “Susceptibility of component P2 (97 kD) to inhibitor” value is given as “resistant”, the “Susceptibility of component P3 (80 kD) to inhibitor” value is reported as “susceptible” and the “Susceptibility of component P4 (55 kD) to inhibitor” value is “resistant”. Moreover, in the series with proteinases E1, E2, the “Susceptibility of component E1 (93 kD) to inhibitor” value is recorded as “susceptible” and the “Susceptibility of component E2 (63 kD) to inhibitor” value is reported as “susceptible”.
`N[C@@H]1C(O)O[C@H](CO)[C@@H](O)[C@@H]1O` (stereo partly drawn) [D-mannosamine]: the “Toxicity to the epithelium” value in the series with corneal epithelium is “Toxic”. The “Inhibition of amoeba-induced CPE” value in the series on Acanthamoeba [6] is listed as “did not inhibit”. In [7], the “Inhibition of Acanthamoeba binding to Man-BSA” value is “did not inhibit” and the “Inhibition of amoebic binding to Man-BSA / affinity of amoebic lectin” value was “did not inhibit”.

Values taken from patent US6037333A, “Microbe-inhibiting compositions” (Trustees of Tufts College, priority 1998, dated 2000).
